Data as given in ChEMBL document CHEMBL5244227, “Applications of fluorine-containing amino acids for drug design” (Eur J Med Chem, 2020).
pEC50, pIC50, pKi: −log10 of the molar value. Each block holds one compound with its values, some of them ahead of it.

Columns and labels:
Hepatitis C virus = test: Antiviral activity against HCV; format: functional, organism-based, Hepacivirus hominis
[1] = Inhibition of HCV NS3/4A protease; parameters: species or system Hepacivirus hominis
[2] = Binding affinity to CGRP (unknown origin); parameters: species or system Homo sapiens
[3] = Oral bioavailability in rat; format: ADME, organism-based; settings: in vivo
[4] = In vivo inhibition of BACE-1 in wild type Hartley guinea pig assessed as reduction in amyloid beta level in cortex at 30 mg/kg, po administered twice daily for 2.5 days; format: functional; settings: Cavia porcellus, 60 h, time 2.5 day
[5] = In vivo inhibition of BACE-1 in wild type Hartley guinea pig assessed as reduction in amyloid beta level in cerebrospinal fluid at 30 mg/kg, po administered twice daily for 2.5 days; format: functional; settings: Cavia porcellus, 60 h, time 2.5 day
[6] = target: ATP-dependent translocase ABCB1 (Homo sapiens, UniProt P08183); test: Substrate activity at human P-gp assessed as transport ratio
Chain of ATP-dependent translocase ABCB1 (P08183 whole entry): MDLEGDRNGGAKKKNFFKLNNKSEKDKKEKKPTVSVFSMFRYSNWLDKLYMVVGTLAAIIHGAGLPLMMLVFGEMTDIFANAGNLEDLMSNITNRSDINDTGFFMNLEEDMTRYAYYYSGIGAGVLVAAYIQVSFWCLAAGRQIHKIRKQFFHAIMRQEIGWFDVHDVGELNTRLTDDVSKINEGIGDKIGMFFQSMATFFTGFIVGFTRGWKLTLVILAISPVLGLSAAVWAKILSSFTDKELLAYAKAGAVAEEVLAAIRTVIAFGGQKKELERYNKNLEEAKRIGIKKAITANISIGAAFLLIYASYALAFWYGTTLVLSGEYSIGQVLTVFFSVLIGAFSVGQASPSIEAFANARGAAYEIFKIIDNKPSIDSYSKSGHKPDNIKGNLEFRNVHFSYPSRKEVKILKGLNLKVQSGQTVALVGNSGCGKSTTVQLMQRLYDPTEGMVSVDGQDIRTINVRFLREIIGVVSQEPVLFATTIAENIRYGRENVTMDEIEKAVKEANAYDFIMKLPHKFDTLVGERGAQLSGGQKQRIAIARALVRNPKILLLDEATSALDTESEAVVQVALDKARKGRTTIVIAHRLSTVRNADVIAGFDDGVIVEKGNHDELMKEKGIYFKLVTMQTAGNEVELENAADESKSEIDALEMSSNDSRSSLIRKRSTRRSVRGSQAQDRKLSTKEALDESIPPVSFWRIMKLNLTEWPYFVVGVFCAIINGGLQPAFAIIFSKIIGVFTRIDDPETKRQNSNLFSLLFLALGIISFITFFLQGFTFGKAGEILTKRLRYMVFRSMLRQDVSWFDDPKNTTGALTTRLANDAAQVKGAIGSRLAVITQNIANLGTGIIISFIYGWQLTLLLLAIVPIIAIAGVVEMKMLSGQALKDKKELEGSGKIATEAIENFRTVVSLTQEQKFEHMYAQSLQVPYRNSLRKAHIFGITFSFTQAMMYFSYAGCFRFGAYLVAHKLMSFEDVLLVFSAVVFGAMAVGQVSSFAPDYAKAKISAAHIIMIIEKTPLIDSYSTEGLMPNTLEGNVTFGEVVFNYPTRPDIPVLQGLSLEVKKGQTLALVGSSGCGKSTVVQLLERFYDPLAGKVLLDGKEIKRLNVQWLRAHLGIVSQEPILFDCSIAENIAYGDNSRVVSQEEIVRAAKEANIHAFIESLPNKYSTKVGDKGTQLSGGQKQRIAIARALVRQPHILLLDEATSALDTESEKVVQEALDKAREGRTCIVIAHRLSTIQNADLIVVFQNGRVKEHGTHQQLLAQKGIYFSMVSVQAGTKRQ

Plasmodium berghei = test: Antimalarial activity against Plasmodium berghei infected in mouse model infected with assessed as reduction in parasitemia at 100 mg/kg; format: functional; parameters: scale not given: the % may be the effect or the level left

Structure (SMILES): COc1ccc2c(O[C@@H]3C[C@H]4C(=O)N[C@]5(C(=O)NS(=O)(=O)C6CC6)C[C@H]5/C=C\CCCCN(C)C(=O)[C@@H]4C3)cc(-c3nc(C(C)C)cs3)nc2c1C
pEC50 [1]: 8.09

Structure (SMILES): O=C(CN1C(=O)C2(CCCC2)NC[C@H]1c1cc(F)cc(F)c1)Nc1ccc2c(c1)C[C@@]1(C2)C(=O)Nc2ncccc21 [MK3207]
pKi [2]: 10.77

Structure (SMILES): COc1ccc2c(O[C@@H]3C[C@H]4C(=O)N[C@]5(C(=O)NS(=O)(=O)C6CC6)C[C@@]5(F)/C=C\CCCCN(C)C(=O)[C@@H]4C3)cc(-c3nc(C(C)C)cs3)nc2c1C
pEC50 [1]: 4.82

Structure (SMILES): COc1ccc2c(O[C@@H]3C[C@H]4C(=O)N[C@]5(P(=O)(O)Cc6c(F)cccc6F)C[C@H]5CCCCCCC[C@H](NC(=O)OC5CCCC5)C(=O)N4C3)cc(-c3csc(NC(C)C)n3)nc2c1Cl [GS-9256]
pIC50 [1]: 8.40 | pKi [1]: 10.05 | pEC50 (Hepatitis C virus): 7.70

Structure (SMILES): COc1cnc(O[C@@H]2C[C@@H](C(=O)N[C@]3(C(=O)NS(=O)(=O)C4CC4)C[C@H]3CC(F)F)N(C(=O)C(NC(=O)OC(C)(C)C)C(C)(C)C)C2)c2cc(Cl)ccc12 (single isomer, unassigned)
pIC50 [1]: 9.00

Structure (SMILES): O=C(CN1C(=O)C2(CCCC2)NC[C@@H]1c1cc(F)cc(F)c1)Nc1ccc2c(c1)C[C@@]1(C2)C(=O)Nc2ncccc21
pKi [2]: 9.24

Structure (SMILES): NCCCC[C@H](NC(=O)[C@@H](Cc1cc(Br)c(O)c(Br)c1)NC(=O)N1CCC(N2Cc3ccccc3NC2=O)CC1)C(=O)N1CCN(c2ccncc2)CC1 [OLCEGEPANT]
pKi [2]: 11.00

Structure (SMILES): CC(=O)N[C@@H](Cc1cc(F)cc(F)c1)[C@H](O)CNC1(c2cccc(C(C)(C)C(F)F)c2)CC1
inhibition in vivo at 30 mg/kg [4]: 28% | inhibition in vivo at 30 mg/kg [5]: 32%

Structure (SMILES): C[C@@]1(c2cc(F)cc(F)c2)CN([11CH3])C2(CCCC2)C(=O)N1CC(=O)Nc1ccc2c(c1)C[C@@]1(C2)C(=O)Nc2ncccc21
Ratio [6]: 1.7

Structure (SMILES): CC1CCc2c([nH]c3ccccc23)C2(N1)C(=O)Nc1ccc(Cl)cc12 (stereo not given)
Activity (Plasmodium berghei): 96%

The remaining lines, values ahead:

pEC50 (Hepatitis C virus): 8.00
Structure (SMILES): COc1ccc2c(O[C@@H]3C[C@H]4C(=O)N[C@]5(P(=O)(O)Cc6ccccc6)C[C@H]5/C=C/CCCCC[C@H](NC(=O)OC5CCCC5)C(=O)N4C3)cc(-c3csc(NC(C)C)n3)nc2c1

pIC50 [1]: 6.01
Structure (SMILES): COc1cnc(O[C@@H]2C[C@@H](C(=O)N[C@@H](CC(F)F)C(=O)NS(=O)(=O)C3CC3)N(C(=O)C(NC(=O)OC(C)(C)C)C(C)(C)C)C2)c2cc(Cl)ccc12 (single isomer, unassigned)

pIC50 [1]: 5.51
Structure (SMILES): CC[C@H](NC(=O)[C@@H]1C[C@@H](Oc2ncc(OC)c3ccc(Cl)cc23)CN1C(=O)C(NC(=O)OC(C)(C)C)C(C)(C)C)C(=O)NS(=O)(=O)C1CC1 (single isomer, unassigned)

pIC50 [1]: 7.89
Structure (SMILES): COc1cnc(O[C@@H]2C[C@@H](C(=O)N[C@]3(C(=O)NS(=O)(=O)C4CC4)C[C@H]3C)N(C(=O)C(NC(=O)OC(C)(C)C)C(C)(C)C)C2)c2cc(Cl)ccc12 (single isomer, unassigned)

bioavailability [3]: 0.5%
Structure (SMILES): C=C[C@@H]1C[C@]1(NC(=O)[C@@H]1C[C@@H](Oc2cc(-c3csc(NC(C)C)n3)nc3cc(OC)ccc23)CN1C(=O)[C@@H](NC(=O)OC1CCCC1)C(C)(C)C)P(=O)(O)Cc1ccccc1

pKi [2]: 10.17
Structure (SMILES): O=C(CN1C(=O)C2(CCCC2)NC[C@@H]1c1ccccc1)Nc1ccc2c(c1)C[C@@]1(C2)C(=O)Nc2ncccc21

pIC50 [1]: 7.77
Structure (SMILES): COc1cnc(O[C@@H]2C[C@@H](C(=O)N[C@]3(C(=O)NS(=O)(=O)C4CC4)C[C@H]3C(F)(F)F)N(C(=O)C(NC(=O)OC(C)(C)C)C(C)(C)C)C2)c2cc(Cl)ccc12 (single isomer, unassigned)
